Here are results for 19 molecules from the Biogen ADME set (Fang et al. 2023).

For this data set the following is noted: for aqueous solubility: pH 6.8.

≈ marks a conversion by molar mass, not a printed value.

Take `CC(C)(C)C(=O)N1CCC(CN2CCCC[C@@H]2CO)CC1`: the MDR1-MDCK efflux ratio came to 14.3; the intrinsic clearance, human liver microsomes is at most 4.74 mL/min/kg; the intrinsic clearance, rat liver microsomes was 29.4 mL/min/kg; the aqueous solubility (commonly how much of the substance goes into solution per volume) is 50.1 µg/mL (≈ 169 µM).

In the case of `NC1(c2noc(-c3cccnc3)n2)CCCCCC1`, the intrinsic clearance, human liver microsomes was at most 4.74 mL/min/kg and the intrinsic clearance, rat liver microsomes worked out at 444 mL/min/kg.

`COc1cccc(C)c1C(=O)N[C@H](CO)CCSC`: the MDR1-MDCK efflux ratio is 1.7; the intrinsic clearance, human liver microsomes came to 32.5 mL/min/kg; the intrinsic clearance, rat liver microsomes was determined as 741 mL/min/kg.

In turn, `N#CCC1(n2cc(-c3ncnc4[nH]ccc34)cn2)CNC1` returned an aqueous solubility of 32.6 µg/mL (≈ 117 µM).

With `Cn1cc(C(C)(C)NC(=O)C#Cc2ccc3c(c2)OCO3)cn1`, the MDR1-MDCK efflux ratio stood at 3.89; the intrinsic clearance, human liver microsomes is at most 4.74 mL/min/kg; the intrinsic clearance, rat liver microsomes turned out to be 51.1 mL/min/kg.

On to `Clc1ccc2c(NCCN3CCOCC3)ncnc2c1`, for which the MDR1-MDCK efflux ratio came to 1.37; the intrinsic clearance, human liver microsomes was found to be 11.7 mL/min/kg; the intrinsic clearance, rat liver microsomes was determined as 213 mL/min/kg.

Consider `CCCn1cc(NC(=O)Nc2ccc(N3CCSCC3)cc2)cn1`, for which the MDR1-MDCK efflux ratio is 7.18; the intrinsic clearance, human liver microsomes amounted to 44.4 mL/min/kg; the intrinsic clearance, rat liver microsomes was found to be 808 mL/min/kg.

With `CCc1cc(=O)[nH]c(SCCN2CCCCC2)n1`, the MDR1-MDCK efflux ratio amounted to 3.43; the intrinsic clearance, human liver microsomes is at most 4.74 mL/min/kg; the intrinsic clearance, rat liver microsomes was determined as 441 mL/min/kg.

Consider `CC1CCN(Cc2ccc(NC(=O)c3ccccn3)cc2)CC1`, for which the MDR1-MDCK efflux ratio amounted to 0.675; the intrinsic clearance, human liver microsomes is at most 4.74 mL/min/kg; the intrinsic clearance, rat liver microsomes turned out to be 16.2 mL/min/kg; the aqueous solubility is 40.8 µg/mL (≈ 132 µM).

Regarding `Cc1ccc(N2CCN(C(=O)c3c(C)nc4sccn34)CC2=O)cc1`, the MDR1-MDCK efflux ratio came out at 6.72; the intrinsic clearance, human liver microsomes was at most 4.74 mL/min/kg; the intrinsic clearance, rat liver microsomes is 32.3 mL/min/kg; the aqueous solubility is 61.6 µg/mL (≈ 174 µM).

Take `O=C(Nc1ccc2sccc2c1)N1CCCN(C(=O)Oc2ccccc2)CC1`: the MDR1-MDCK efflux ratio stood at 1.31; the intrinsic clearance, human liver microsomes worked out at 78.3 mL/min/kg; the intrinsic clearance, rat liver microsomes is 765 mL/min/kg; the aqueous solubility turned out to be 37.9 µg/mL (≈ 95.7 µM).

On to `CC(C)Cc1sc(N)nc1-c1ccc(P(=O)(O)O)o1`, for which the MDR1-MDCK efflux ratio was found to be 0.425; the intrinsic clearance, human liver microsomes was at most 4.74 mL/min/kg; the intrinsic clearance, rat liver microsomes is at most 10.7 mL/min/kg; the aqueous solubility is 69.3 µg/mL (≈ 229 µM).

On to `COc1cccc(N(C)CCC(=O)N2CCC(c3ccc(-c4ccc(N)nc4)cn3)CC2)c1`, for which the MDR1-MDCK efflux ratio stood at 6.73; the intrinsic clearance, human liver microsomes was determined as 821 mL/min/kg; the intrinsic clearance, rat liver microsomes is 1770 mL/min/kg; the aqueous solubility was 47 µg/mL (≈ 106 µM).

Regarding `Cc1cc2nc(CCC(=O)N3CCC(c4ccc(C(=O)N(C)C)c(N)n4)CC3)[nH]c2cc1C`, the MDR1-MDCK efflux ratio came to 36.2; the intrinsic clearance, human liver microsomes came out at 107 mL/min/kg; the intrinsic clearance, rat liver microsomes amounted to 320 mL/min/kg; the aqueous solubility came out at 39.7 µg/mL (≈ 88.4 µM).

Take `COCCNC(=O)c1ccnc(C2CCNCC2)c1`: the fraction unbound, human plasma amounted to 1; the fraction unbound, rat plasma is 1; the intrinsic clearance, human liver microsomes is at most 4.74 mL/min/kg; the intrinsic clearance, rat liver microsomes was 16.1 mL/min/kg.

As to `O=C(Nc1ccn(CC(F)F)n1)NC1CCN(C2CCCC2)CC1`, the MDR1-MDCK efflux ratio amounted to 34.7; the intrinsic clearance, human liver microsomes was at most 4.74 mL/min/kg; the intrinsic clearance, rat liver microsomes was at most 10.7 mL/min/kg.

`COc1ccc(Oc2cc(C)c(-c3csc(NC(=O)c4ccncc4)n3)c(C)c2)cc1`: the aqueous solubility came to 0.31 µg/mL (≈ 0.718 µM).

For `COc1ncccc1CNc1ncnc2c1cnn2C`, the MDR1-MDCK efflux ratio came to 0.967; the intrinsic clearance, human liver microsomes is at most 4.74 mL/min/kg; the intrinsic clearance, rat liver microsomes came to 28.8 mL/min/kg; the aqueous solubility stood at 46.6 µg/mL (≈ 172 µM).

For the molecule `Cn1nc(CNC(=O)C2CCC2)c2ccccc21`, the MDR1-MDCK efflux ratio worked out at 0.662; the intrinsic clearance, human liver microsomes is 12.5 mL/min/kg; the intrinsic clearance, rat liver microsomes turned out to be 147 mL/min/kg.
